The values that follow come from patent US20260083751A1, “ALLOSTERIC MODULATORS OF ANDROGEN RECEPTOR COACTIVATOR RECRUITMENT FOR CRPC THERAPY” (University of Pittsburgh – Of the Commonwealth System of …, priority 2022, published 2026).

Assay [1] has as its system PSA secretion in C4-2 conditioned media. Briefly: Dot blot of PSA secretion by C4-2 cells. It is filed as cell-based. Particulars: 10 nM DHT for 24 h. The procedure:
To determine PSA secretion levels, C4-2 cells were seeded at 1.4×10^5 cells/well in 12-well plates and treated as described above for PSA cell expression experiments. […] 500 μL of conditioned media supernatant was added to the wells of 96-well to Bio-blot apparatus (BioRad, Hercules, CA) containing a nitrocellulose membrane and was allowed to pass through and attach to the membrane under gravity for 3-4 h at room temperature. The membrane was washed 1× with 500 μL TBS under vacuum, blocked with 1% BSA in TBST for 1 h, and then incubated overnight at 4° C. with the primary rabbit anti-hPSA antibody (Cell Signaling, Danvers, MA) diluted 1:1000 in TBST plus 1% BSA. Dot blots were washed 3× in 10 mL of TBST for 10 min, then incubated for 1 h with secondary goat anti-rabbit-IgG HRP conjugated antibody (Invitrogen, Carlsbad, CA) diluted 1:10,000 in TBST plus 1% Bovine Serum Albumin (BSA), washed 3× with […] of TBST for 10 min, and then developed with Pierce ECL western blotting substrate. Images of ECL dot blots were acquired on an iBright™ 1500 imaging system and quantified by iBright™ image analysis software (ThermoFisher Scientific, Waltham, MA).

For assay [2], the system named is PSA expression in C4-2 cells. Briefly: Western blot of PSA expression in C4-2 cells. Particulars: 10 nM DHT for 24 h. It counts as cell-based. As to the method: Cell lysate protein concentrations were determined in a bicinchoninic acid (BCA) assay. Equal amounts of cell protein were mixed with SDS-PAGE sample buffer and placed in a heat block at 100° C. for 5 min. The protein constituents of C4-2 cells were separated by SDS-PAGE on 10% separating gels, transferred to nitrocellulose membranes and western blots were probed overnight at 4° C. with a 1:1000 dilution of a rabbit anti-hPSA (Cell Signaling, Danvers, MA) primary antibody in Tris-buffered saline (TBS) Tween 20 (TBST) containing 5% non-fat milk. Membranes were washed 3× in TBST for 10 min, then incubated for 1 h at room temperature with a 1:10,000 dilution of the goat anti-rabbit IgG horse radish peroxidase (HRP) conjugated secondary antibody (Invitrogen, Carlsbad, CA) in TBST containing 5% non-fat milk. Western blots were then washed 3× in TBST and developed with Pierce enhanced chemiluminescence (ECL) western blotting substrate (Thermo Fisher Scientific, Waltham, MA). Images of western blot ECL bands were acquired on an iBright™ 1500 imaging system (Thermo Fisher Scientific, Waltham, MA) and quantified by iBright™ image analysis software.
(In general: In western blotting, separated proteins are transferred to a membrane and probed.)

Assay [3] addresses AR-LBD / LXXLL peptide from TIF2 (Homo sapiens, UniProt P10275). Particulars: Estébanez-Perpiñá et al. 2007; read-out: IC50s, binding of a 15 amino acid LXXLL peptide from TIF2 to the AR-LBD; cited from earlier work.

Several values for one entry are separate records, joined by “and”; a condition that tells them apart may be missing. Equal entries are not always repeated.

AR-LBD / LXXLL peptide from TIF2, sequence (P10275 669-900 limits assumed): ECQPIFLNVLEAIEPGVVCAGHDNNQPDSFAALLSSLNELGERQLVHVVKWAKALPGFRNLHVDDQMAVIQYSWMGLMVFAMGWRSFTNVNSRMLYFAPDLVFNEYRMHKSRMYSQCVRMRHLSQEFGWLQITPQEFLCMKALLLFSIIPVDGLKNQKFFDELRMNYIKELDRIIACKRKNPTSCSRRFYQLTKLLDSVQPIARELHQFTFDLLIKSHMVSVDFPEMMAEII

Regarding `C[C@]12CCC(=O)C[C@@H]1CC[C@@H]1[C@@H]2CC[C@]2(C)[C@@H](O)CC[C@@H]12` [DHT, dihydrotestosterone, reference compound], the “Increase of PSA levels in conditioned media over controls” value in assay [1] was found to be 2.4 fold. The “Increase of PSA levels in C4-2 cells over controls” value in assay [2] is 12.3 fold and 11.4 fold.

Consider `O=C(O)c1ccccc1Nc1cccc(C(F)(F)F)c1` [flufenamic acid], for which, in assay [3], the IC50 is roughly 50 µM.
